Converted amounts (≈) assume the structure as drawn. Like-named read-outs stand apart in the source and are kept apart here.

What is called EC50 is the midpoint of the concentration-response curve.

Series [1] relates to intracellular amastigotes of L. (V) panamensis-pIR-eGFP. In words: organism not typed. The format is cell-based. To be noted: for EC50: U-937, 72 h, read-out: Intracellular Amastigotes EC50; for degree of leishmanicidal activity, intracellular amastigotes: authors' own scale by EC50. The procedure:
(§1) Virulent L. (V) panamensis MHOM/CO/87/UA140 strain transfected with green fluorescent protein gene called L. (V) panamensis-pIR-eGFP was maintained by successive passaging in golden hamsters (Mesocricetus auratus). Briefly, amastigotes were aspirated from cutaneous lesions of hamsters experimentally infected with promastigotes of L. (V) panamensis-pIR-eGFP. Samples were cultured in biphasic culture with Novy-MacNeal-Nicholle (NNN) medium as solid phase and PBS plus glucose, pH 6.9 as liquid phase and incubated at 26 °C to obtain promastigotes. Medium was changed every week until 2 months.
Intracellular amastigotes were obtained after infection of U-937 cells with promastigotes. Briefly, U-937 cells were dispensed in 24-well plates at a concentration of 300,000 cells/well and were treated with 1 µM of phorbol myristate acetate (PMA) (Sigma) for 48 h at 37 °C. Then, cells were infected with promastigotes in stationary growth phase (day 5) at a ratio of 1:15 cell/parasite and incubated for 3 h at 34 °C in 5% CO2. […] After 24 h of infection, cells were ready to be used in antileishmanial testing assay as described below.
The effect of compounds against intracellular amastigotes of L. (V) panamensis-pIR-eGFP was evaluated by flow cytometry using the methodology described by others. […] Infected and treated cells were maintained at 34 °C and 5% CO2 for 72 h. After 72 h, cells were washed twice with 1 mL of cold PBS and cells were removed from the bottom plate with a trypsin/EDTA ([…]) solution. Recovered cells were centrifuged at 1100 rpm for 10 min at 4 °C, the supernatant was discarded and cells were washed with 1 mL of cold PBS and centrifuged at 1100 rpm for 10 min at 4 °C. Supernatant was discarded and cells were suspended in 500 μL of PBS and analyzed by flow cytometry (FC 500MPL, Cytomics, Brea, CA, USA) using histogram analyses (Figure 2). […] Each concentration of compounds was tested in triplicate in two independent experiments.
The antileishmanial activity in intracellular amastigotes was determined according to the reduction of infected cells and parasite load (viable parasites inside infected cells) obtained for each experimental condition. The percentage of infected cell inhibition and parasite load for each concentration of each compound were calculated first using Equation (3): % infection = (% infected and treated cells ÷ % infected and untreated cells) × 100(3)
And then, the percentage of infection inhibition was calculated using Equation (4): % Inhibition = 100 − % infection(4)

Series [2] concerns axenic amastigotes of L. (V) panamensis. In words: organism not typed. Format: cell-based. To be noted: for degree of leishmanicidal activity, axenic amastigotes: authors' own scale by EC50. The procedure: as §1
The axenic amastigotes were obtained from promastigotes cutured in Schneider’s medium, as described elsewhere. Briefly, promastigotes of L. (V) panamensis-pIR-eGFP at 5 × 10^6 parasites/mL were cultured in Schneider medium (Sigma), pH 5.4 supplemented with 20% FBS and 1% antibiotics and incubation at 26 °C. Every three days, medium was changed and temperature was increased one degree each time until it reached 32 °C at which the transformation of the promastigotes into axenic amastigotes is achieved. After three days of growing as axenic amastigotes, parasites were ready to be used in the antileishmanial testing assay as described below.
The ability of compounds to kill axenic amastigotes of L. (V) panamensis was determined based on the viability of the parasites after exposure to each compound evaluated by the MTT method following the methodology described by others. Axenic amastigotes obtained as described above were harvested, washed, and adjusted at 2 × 10^6 parasites/mL in fresh Schneider’s medium with 20% FBS. Into each well of a 96-well plate 100 µL of parasite suspension (2 × 10^5 axenic amastigotes) were dispensed and then 100 µL of each concentration of the corresponding compound were added. […] Plates were incubated at 32 °C. After 72 h of incubation, the effect of each compound was determined by adding 10 µL/well of MTT and incubating at 32 °C for 3 h. The reaction was stopped as described above and the quantity of formazan produced was measured in a plate reader spectrophotometer (Bio-Rad) set at 570 nm. Axenic amastigotes cultivated in the absence of any compound but maintained under the same conditions were used as controls for growth and viability (negative control) while parasites cultivated in the presence of MA were used as controls for leishmanicidal activity (positive control). Assays were performed at least twice with three replicates per each concentration tested.
In turn, activity of compounds with axenic amastigotes was determined according to the reduction of parasite growth percentages obtained for each experimental condition. The percentage of parasite growth was calculated first using Equation (5): % parasite growth = (O.D. treated ax. amastigotes)/(O.D. of untreated ax. amastigotes) × 100(5) where the O.D. of the untreated axenic amastigotes corresponds to 100% parasite growth. Then, the percentage of parasite growth inhibition was calculated using Equation (6): % parasite growth inhibition = 100 − % parasite growth(6)

Series [3] is described as follows: in vitro. The method, then:
U-937 promonocytes (CRL1593.2™) were obtained from the American Type Culture Collection (ATCC, Manassas, VA, USA), cultured in complete medium containing RPMI 1640 medium (Sigma) supplemented with 10% fetal bovine serum (FBS) (Gibco, Life Technologies, Grand Island, NY, USA) and 1% antibiotics (100 U/mL penicillin and 0.1 mg/mL streptomycin) (Sigma). Cells were maintained in standard conditions at 37 °C, 5% CO2 with change of medium every three days until use.
The cytotoxicity of compounds was assessed based on the viability of U-937 cells and evaluated by the MTT (3-(4,5-dimethylthiazol-2-yl)-2,5-diphenyltetrazolium bromide) method as described by others. Briefly, into each well of a 96-well cell-culture dishes 100,000 cells/100 μL were dispensed in RPMI-1640 supplemented with 10% FBS and 100 μL of the corresponding concentrations of the corresponding product. Six two fold serial dilutions were tested starting at 200 µg/mL (200, 100, 50, 25, 12.5 and 6.25 μg/mL). Cells were incubated at 37 °C with 5% CO2 for 72 h in the presence of compounds, and then the effect was determined by measuring the activity of the mitochondrial dehydrogenase by adding 10 µL/well of MTT solution (0.5 mg/mL) and incubating at 37 °C for 3 h. The reaction was stopped by adding 100 μL /well of 50% isopropanol solution with 10% sodium dodecyl sulfate for 30 min. Cell growth was determined based on the quantity of formazan produced, which was measured at 570 nm in a plate reader spectrophotometer (Bio-Rad, Hercules, CA, USA). Cells cultured in the absence of products were used as cell growth controls (negative control), while cells cultured in presence of amphotericin B (AmB, Sigma) and meglumine antimoniate (MA, Sanofi-Aventis, Bogotá, Colombia) were used as cytotoxicity controls (positive control). Each concentration was tested in triplicate in at least two independent experiments.
Cytotoxicity was determined according to the percentages of cell growth (viability) obtained for each tested compound or medium alone. Percentages of viability were calculated first using Equation (1): % Viability = (O.D. of treated cells)/(O.D. of untreated cells) × 100(1) where the O.D. of the untreated cells corresponds to 100% viability. Then, the percentage of cell growth inhibition was calculated using Equation (2): % Cell growth inhibition = 100 − % Viability(2)
The degree of cytotoxicity was established as convenient according to the LC50 values, using our own scale: high cytotoxicity: LC50 < 100 μg/mL, moderate cytotoxicity: 100 μg/mL < LC50 < 200 μg/mL; and potential non-cytotoxicity: LC50 > 200 μg/mL.

Setting [4] is: L. (V) panamensis in U-937 cells, flow cytometry, 72 h, mean ± standard deviation.
Where [5] appears, read: 72 h, L. (V) panamensis axenic amastigotes, MTT, 72 h, mean ± standard deviation, read-out: Axenic Amastigotes EC50.

On to `C[N+](C)(CCl)CCO` [Compound 4a, N-Choromethyl-N,N-dimethyl-N-(2-hydroxyet-1-yl)ammonium iodide], for which the values for the EC50 in series [1] (setting [4]) and in series [2] (setting [5]) were 29.6 ± 2.8 µg/mL and 24.3 ± 1.3 µg/mL, respectively. Besides, the “degree of leishmanicidal activity, intracellular amastigotes” value (“degree … intracellular amastigotes” below) in series [1] was “moderate (moderate activity: 25 μg/mL < EC50 < 50 μg/mL)”. Further, in series [2], the “degree of leishmanicidal activity, axenic amastigotes” value (from here on “degree … axenic amastigotes”) was “high (high leishmanicidal activity: EC50 < 25 μg/mL)”. In series [3], this compound yielded a CC50 at 72 h of 17.9 ± 0.02 µg/mL.

As to `C[N+](C)(CCl)CCCC=C(c1ccccc1)c1ccccc1.[I-]` [Compound 1b, N-Chloromethyl-N,N-dimethyl-N-(5,5-diphenylpent-4-en-1-yl)ammonium iodide], the EC50 in series [1] (setting [4]) was 46.8 ± 1.2 µg/mL; in series [2] (setting [5]) it was 56.3 ± 3.7 µg/mL. Further, the CC50 at 72 h in series [3] was 21 ± 2 µg/mL.

Turning to `C[N+](C)(CI)CCC=C(c1ccccc1)c1ccccc1.[I-]` [Compound 2a, N-Iodomethyl-N,N-dimethyl-N-(4,4-diphenylbut-3-en-1-yl)ammonium iodide], the EC50 in series [1] (setting [4]) was 27.8 ± 3.9 µg/mL; in series [2] (setting [5]), 36.2 ± 0.1 µg/mL. Further, in series [3], the CC50 at 72 h is 46 ± 5.4 µg/mL.

In the case of `C[N+](C)(CCl)CCC=C(c1ccccc1)c1ccccc1.[I-]` [Compound 1a, N-Chloromethyl-N,N-dimethyl-N-(4,4-diphenylbut-3-en-1-yl)ammonium iodide], the EC50 stood at 38.4 ± 0.2 µg/mL in series [1] (setting [4]) and 35 ± 5.7 µg/mL in series [2] (setting [5]). Besides, the CC50 at 72 h in series [3] is 44.4 ± 4.9 µg/mL.

In series [3] (human), `C[C@@H]1[C@H](O)[C@@H](C)/C=C/C=C/C=C/C=C/C=C/C=C/C=C/[C@H](O[C@@H]2O[C@H](C)[C@@H](O)[C@H](N)[C@@H]2O)C[C@@H]2O[C@](O)(C[C@@H](O)C[C@@H](O)[C@H](O)CC[C@@H](O)C[C@@H](O)CC(=O)O[C@H]1C)C[C@H](O)[C@H]2C(=O)O` [AmB, Amphotericin B, reference compound] gave a CC50 at 72 h of 28.2 ± 0.5 µg/mL (≈ 30.5 µM).

As to `C[N+](C)(CCl)CCCCC=C(c1ccccc1)c1ccccc1.[I-]` [Compound 1c, N-Chloromethyl-N,N-dimethyl-N-(6,6-diphenylhex-5-en-1-yl)ammonium iodide], the EC50 in series [1] (setting [4]) worked out at 49.4 ± 3.1 µg/mL; in series [2] (setting [5]), 40.5 ± 3.3 µg/mL. The same compound had a CC50 at 72 h in series [3] of 21 ± 0.5 µg/mL.

As to `C[N+](C)(CI)CCCCC=C(c1ccccc1)c1ccccc1.[I-]` [Compound 2c, N-Iodomethyl-N,N-dimethyl-N-(6,6-diphenylhex-5-en-1-yl)ammonium iodide], the figures for the EC50 in series [1] (setting [4]) and in series [2] (setting [5]) were 17.6 ± 1 µg/mL and 14 ± 0.9 µg/mL, respectively. The compound further gave a CC50 at 72 h in series [3] of 9.5 ± 0.3 µg/mL.

Turning to `C[N+](C)(C)CCCCC=C(c1ccccc1)c1ccccc1.[I-]` [Compound 3c, N,N,N-Trimethyl-N-(6,6-diphenylhex-5-en-1-yl)ammonium iodide], the EC50 in series [1] (setting [4]) was found to be 41.6 ± 2.8 µg/mL; in series [2] (setting [5]), 34.1 ± 5.1 µg/mL. For the same compound, in series [3], the CC50 at 72 h amounted to 12.5 ± 0.8 µg/mL.

In the case of `C[N+](C)(CI)CCCC=C(c1ccccc1)c1ccccc1.[I-]` [Compound 2b, N-Iodomethyl-N,N-dimethyl-N-(5,5-diphenyl-4-penten-1-yl)ammonium iodide], the EC50 turned out to be 24 ± 0.7 µg/mL in series [1] (setting [4]) and 19.7 ± 1.5 µg/mL in series [2] (setting [5]). Further, the CC50 at 72 h in series [3] was determined as 10.1 ± 0.2 µg/mL.

In the case of `C[N+](C)(C)CCCC=C(c1ccccc1)c1ccccc1.[I-]` [Compound 3b, N,N,N-Trimethyl-N-(5,5-diphenylpent-4-en-1-yl)ammonium iodide], the EC50 in series [1] (setting [4]) is 24.7 ± 1.9 µg/mL; in series [2] (setting [5]), 25 ± 0.5 µg/mL. Further, the CC50 at 72 h in series [3] is 27.2 ± 0.7 µg/mL.

Take `C[N+](C)(C)CCO.[I-]` [Compound 4c, (2-Hydroxyethyl)trimethylammonium iodide, reference compound]: in series [1], the EC50 turned out to be 150 ± 17.9 µg/mL and the “degree … intracellular amastigotes” value is given as “almost no activity”. Also, the EC50 in series [2] (72 h, read-out: Axenic Amastigotes EC50, L. (V) panamensis axenic amastigotes, MTT, 72 h, mean ± standard deviation) is < 50 µg/mL. In addition, the “Axenic Amastigotes EC50” value in series [2] (L. (V) panamensis axenic amastigotes, MTT, 72 h, mean ± standard deviation) worked out at 47.2 ± 7.1 µg/mL. In addition, the “degree … axenic amastigotes” value in series [2] was “moderate activity”. Besides, the CC50 at 72 h in series [3] was determined as 372 ± 43.1 µg/mL.

Regarding `C[N+](C)(CI)CCO` [Compound 4b, N-Iodomethyl-N,N-dimethyl-N-(2-hydroxyet-1-yl)ammonium iodide], the EC50 in series [1] (setting [4]) was determined as 23.9 ± 1 µg/mL; in series [2] (setting [5]) it was 19.6 ± 1.8 µg/mL. In series [3], this compound returned a CC50 at 72 h of 17.8 ± 0.2 µg/mL.

Consider `C[N+](C)(C)CCC=C(c1ccccc1)c1ccccc1.[I-]` [Compound 3a, N,N,N-Trimethyl-N-(4,4-diphenylbut-3-en-1-yl)ammonium iodide], for which the results for the EC50 in series [1] (setting [4]) and in series [2] (setting [5]) were 30 ± 1.4 µg/mL and 25 ± 0.7 µg/mL, respectively. In series [1], the “degree … intracellular amastigotes” value was “moderate (moderate activity: 25 μg/mL < EC50 < 50 μg/mL)”. Also, in series [2], the “degree … axenic amastigotes” value is recorded as “high (high leishmanicidal activity: EC50 < 25 μg/mL)”. This compound also yielded a CC50 at 72 h in series [3] of 39.2 ± 4.8 µg/mL.
